Data on 30 compounds can be found in ChEMBL document CHEMBL3390839, “Triazolopyrimidinones as -secretase modulators: structureactivity relationship, modulator profile, and in vivo profiling” (Medchemcomm, 2013).

Converted amounts (≈) assume the structure as drawn. A value given as a limit tells only on which side of the number the result lay.

The nature of series [1]: Inhibition of gamma-secretase in mouse primary cortical neurons cells assessed as amyloid beta42 production after 5 days by ELISA. The class given is cell-based, Cerebral cortex neuron. The conditions noted are these: for IC50: Mus musculus, Cerebral cortex neuron, 120 h; for pIC50: cerebral cortex neuron.
For series [2], the target named is Voltage-gated inwardly rectifying potassium channel KCNH2 (Homo sapiens, UniProt Q12809). As to the kind of experiment: Inhibition of human ERG.
A short description of series [3]: Solubility of the compound. The class given is physicochemical.
Series [4] deals with Liver microsome. In words: Intrinsic clearance in human liver microsomes measured pre ug of protein. In kind it is ADME.
For series [5], the target named is Gamma-secretase. As to the kind of experiment: Inhibition of human gamma-secretase in HEK-APPswe cells assessed as amyloid beta42 production by electrochemiluminescence assay. The class given is cell-based.
Series [6] is described as follows: Ratio of drug level in brain to plasma in C57BL/6 mouse. The class given is ADME, organism-based. The following applies: brain and plasma, read-out: BPR.
Series [7] is described as follows: Permeability across apical to basolateral side in human Caco2 cells. The class given is ADME, cell-based. On the technique in general: Caco-2 cells form a polarised layer with tight junctions and transporters.
A short description of series [8]: Permeability across basolateral to apical side in human Caco2 cells. In kind it is ADME, cell-based.

Usually IC50 stands for the point on the concentration scale where inhibition reaches its midpoint. What is called solubility is the dissolved amount per volume that the medium holds. As a reminder, the pIC50 is the negative decadic logarithm of the IC50, by convention in mol/L.

Chain of Voltage-gated inwardly rectifying potassium channel KCNH2 (Q12809 whole entry): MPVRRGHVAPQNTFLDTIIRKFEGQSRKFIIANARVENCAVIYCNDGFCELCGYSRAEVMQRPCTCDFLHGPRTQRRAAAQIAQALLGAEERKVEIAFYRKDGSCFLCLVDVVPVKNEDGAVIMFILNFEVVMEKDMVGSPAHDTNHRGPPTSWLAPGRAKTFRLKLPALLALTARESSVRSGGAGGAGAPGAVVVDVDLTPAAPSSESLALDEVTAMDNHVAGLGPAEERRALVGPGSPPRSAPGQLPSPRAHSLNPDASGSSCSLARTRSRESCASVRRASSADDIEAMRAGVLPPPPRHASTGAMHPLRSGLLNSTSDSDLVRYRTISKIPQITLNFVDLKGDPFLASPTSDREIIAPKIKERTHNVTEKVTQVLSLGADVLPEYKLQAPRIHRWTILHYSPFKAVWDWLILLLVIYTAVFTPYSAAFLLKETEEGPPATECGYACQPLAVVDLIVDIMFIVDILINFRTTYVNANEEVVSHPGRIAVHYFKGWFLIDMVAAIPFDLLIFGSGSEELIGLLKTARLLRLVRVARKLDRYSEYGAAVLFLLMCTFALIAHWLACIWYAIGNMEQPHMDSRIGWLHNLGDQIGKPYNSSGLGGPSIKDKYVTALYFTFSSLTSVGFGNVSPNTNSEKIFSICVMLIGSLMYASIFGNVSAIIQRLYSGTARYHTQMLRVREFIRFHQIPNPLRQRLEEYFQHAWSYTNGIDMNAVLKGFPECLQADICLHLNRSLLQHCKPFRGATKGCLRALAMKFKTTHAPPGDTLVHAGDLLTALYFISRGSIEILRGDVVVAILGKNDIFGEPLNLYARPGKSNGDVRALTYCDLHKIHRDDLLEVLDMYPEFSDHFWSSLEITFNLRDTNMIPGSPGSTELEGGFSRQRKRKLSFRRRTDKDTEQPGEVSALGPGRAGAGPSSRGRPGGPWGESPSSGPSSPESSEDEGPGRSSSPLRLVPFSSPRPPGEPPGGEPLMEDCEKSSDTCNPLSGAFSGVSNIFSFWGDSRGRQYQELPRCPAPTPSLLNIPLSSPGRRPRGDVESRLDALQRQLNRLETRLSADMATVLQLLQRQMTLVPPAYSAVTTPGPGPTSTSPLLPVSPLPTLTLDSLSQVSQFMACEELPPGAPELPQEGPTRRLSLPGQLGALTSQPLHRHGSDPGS

For `COc1cc(Nc2nc3n(n2)C(C)CCN3CCC(C)(C)O)ccc1-n1cnc(C)c1` (centres undefined), the IC50 in series [1] is 158 nM; in series [2], 32000 nM. Also, the solubility in series [3] (read-out: solubility) turned out to be 380 µM (≈ 162 µg/mL). In series [4], this compound yielded a CLH of 47 µL/min.
As for `COc1cc(Nc2nc3n(n2)CCCC3c2ccc(F)cc2)ccc1-c1cnnc(C)c1` (centres undefined), in series [5], the negative logarithm of the IC50 (pIC50) is 7.7. For the same compound, the IC50 in series [1] is 100 nM.
`COc1cc(Nc2nc3n(n2)C(C)(C)CC(=O)N3Cc2ccc(F)cc2)ccc1-n1cnc(C)c1`: the negative logarithm of the IC50 (pIC50) in series [5] came out at 7.9. In addition, the IC50 in series [1] is 31.6 nM; in series [2], 5600 nM. For the same compound, the solubility in series [3] (read-out: solubility) was determined as 2 µM (≈ 0.951 µg/mL). The same compound came in with a CLH in series [4] of 50 µL/min. The Kp in series [6] stood at 0.23.
For `COc1cc(Nc2nc3n(n2)CCC(=O)N3Cc2ccccc2C)ccc1-c1cnc(C)nc1`, in series [5], the pIC50 is given as 7.2. The concentration for half-maximal inhibition (IC50) in series [2] came out at 11000 nM. Also, in series [3] (read-out: solubility), the solubility was less than 1 µM. The compound also gave a CLH in series [4] of 94 µL/min.
On to `N#CCc1ccc(Nc2nc3n(n2)CCCC3c2ccc(F)cc2)cc1` (centres undefined), for which the negative logarithm of the IC50 (pIC50) in series [5] is 5.8.
`COc1cc(Nc2nc3n(n2)C(C)CC(=O)N3Cc2cc(F)ccc2F)ccc1-n1cnc(C)c1` (centres undefined): in series [5], the pIC50 was determined as 7.7. Moreover, in series [1], the IC50 is 20 nM. The solubility in series [3] (read-out: solubility) is less than 1 µM. This compound displayed a CLH in series [4] of 70 µL/min.
The like results for `COc1cc(Nc2nc3n(n2)C2(CC2)CC(=O)N3Cc2ccc(F)cc2)ccc1-n1cnc(C)c1` were, in that order, 7.9, 25.1 nM, less than 1 µM and 29 µL/min.
For `COc1cc(Nc2nc3n(n2)CCCC3c2ccc(F)cc2)ccc1-n1cnc(C)n1` (stereo in doubt; 14A), the negative logarithm of the IC50 (pIC50) in series [5] was determined as 7.4; in series [1], 7.
Turning to `COc1cc(Nc2nc3n(n2)C(C2CC2)CCN3CC(C)(C)O)ccc1-n1cnc(C)c1` (stereo in doubt; 42B), in series [1], the pIC50 is 6.9. The compound further showed an IC50 in series [2] of 33000 nM. Also, the solubility in series [3] (read-out: solubility) came out at 42 µM (≈ 18.4 µg/mL). This compound also had a CLH in series [4] of 21 µL/min.
In the case of `COc1cc(Nc2nc3n(n2)CCCC3c2ccccc2)ccc1-n1cnc(C)c1` (centres undefined), the pIC50 in series [5] is reported as 7.6. In series [1], the IC50 was 50.1 nM. The Papp A→B in series [7] (Caco-2, read-out: permeability) was found to be 36 ×10⁻⁶ cm/s. The Papp B→A in series [8] (Caco-2, read-out: permeability) was 13 ×10⁻⁶ cm/s. Moreover, the Kp in series [6] was 0.12.
`COc1cc(Nc2nc3n(n2)CCC(=O)N3Cc2ccccc2Cl)ccc1-n1cnc(C)n1`: the pIC50 in series [5] came out at 7.4. In addition, the 50% inhibitory concentration (IC50) in series [2] was 33000 nM. In addition, in series [3] (read-out: solubility), the solubility was less than 1 µM. In series [4], this compound displayed a CLH of 22 µL/min.
Take `COc1cc(Nc2nc3n(n2)C(C2CC2)CC(=O)N3Cc2cc(F)ccc2F)ccc1-n1cnc(C)c1` (centres undefined): the values for the IC50 in series [1] and in series [2] were 15.8 nM and 33000 nM, respectively. The solubility in series [3] (read-out: solubility) is less than 1 µM. The compound also returned a CLH in series [4] of 88 µL/min. Also, in series [6], the Kp is 0.11.
Turning to `COc1cc(Nc2nc3n(n2)CCCN3Cc2ccccc2)ccc1-n1cnc(C)c1`, the negative logarithm of the IC50 (pIC50) in series [5] is reported as 7.7. Moreover, the half-inhibitory concentration (IC50) was 100 nM in series [1] and 5000 nM in series [2]. Further, in series [3] (read-out: solubility), the solubility is 49 µM (≈ 20.4 µg/mL). Also, the CLH in series [4] worked out at 82 µL/min.
As to `COc1cc(Nc2nc3n(n2)C(C)CC(=O)N3Cc2ccccc2)ccc1-n1cnc(C)c1` (stereo in doubt; 19A), the pIC50 turned out to be 7.7 in series [5] and 6.8 in series [1]. For the same compound, the solubility in series [3] was 1 µM (≈ 0.444 µg/mL). The compound further had a CLH in series [4] of 73 µL/min.
With `COc1cc(Nc2nc3n(n2)CC(O)CN3Cc2ccccc2)ccc1-n1cnc(C)c1` (centres undefined), the half-inhibitory concentration (IC50) in series [1] is 100 nM; in series [2], 28000 nM. Also, the solubility in series [3] (read-out: solubility) turned out to be 290 µM (≈ 125 µg/mL). In series [4], this compound had a CLH of 19 µL/min.
For `COc1cc(Nc2nc3n(n2)CCCN3CCC2CC2)ccc1-n1cnc(C)c1`, the negative-log IC50 (pIC50) in series [5] was 7.4. In addition, the IC50 was 79.4 nM in series [1] and 6200 nM in series [2]. Moreover, the solubility in series [3] (read-out: solubility) is 17 µM (≈ 6.69 µg/mL). The same compound gave a CLH in series [4] of 105 µL/min.
The like results for `COc1cc(Nc2nc3n(n2)CCC(=O)N3c2ccccc2)ccc1-n1cnc(C)c1` were, in that order, 7.4, 251 nM, 33000 nM, 2 µM (≈ 0.831 µg/mL) and 36 µL/min.
Take `COc1cc(Nc2nc3n(n2)CCC(=O)N3Cc2ccccc2C)ccc1-c1cc(C)cnn1`: the pIC50 in series [5] worked out at 5. Further, in series [2], the IC50 was determined as 33000 nM. Also, the solubility in series [3] (read-out: solubility) stood at 170 µM (≈ 77.4 µg/mL). The compound further displayed a CLH in series [4] of 27 µL/min.
Turning to `COc1cc(Nc2nc3n(n2)CCC(=O)N3Cc2ccccc2)ccc1-n1cnc(C)n1`, in series [5], the negative logarithm of the IC50 (pIC50) is 7. For the same compound, the results for the half-maximal inhibitory concentration (IC50) in series [1] and in series [2] were 794 nM and 17000 nM, respectively. Also, in series [3] (read-out: solubility), the solubility worked out at 8 µM (≈ 3.44 µg/mL). Further, the CLH in series [4] was found to be 16 µL/min.
`COc1cc(Nc2nc3n(n2)CC(C)C(=O)N3Cc2ccccc2)ccc1-n1cnc(C)c1` (centres undefined): the 50% inhibitory concentration (IC50) is 50.1 nM in series [1] and 5600 nM in series [2]. Besides, in series [3] (read-out: solubility), the solubility is 2 µM (≈ 0.887 µg/mL). Besides, the CLH in series [4] amounted to 84 µL/min.
On the same counts, the results for `COc1cc(Nc2nc3n(n2)C(C2CC2)CCN3CCC(C)(C)O)ccc1-n1cnc(C)c1` (centres undefined) are 100 nM, 16000 nM, 69 µM (≈ 31.2 µg/mL) and 26 µL/min.
With `COc1nc(Nc2nc3n(n2)CCCC3c2ccc(F)cc2)ccc1-n1cnc(C)c1` (centres undefined), the pIC50 in series [5] was 7.2.
With `COc1cc(Nc2nc3n(n2)C(C)CCN3CC(C)(C)O)ccc1-n1cnc(C)c1` (centres undefined), the negative logarithm of the IC50 (pIC50) in series [5] is listed as 6.5. The IC50 is 316 nM in series [1] and 33000 nM in series [2]. Moreover, the solubility in series [3] (read-out: solubility) stood at 330 µM (≈ 136 µg/mL). In series [4], this compound registered a CLH of 33 µL/min.
As for `COc1cc(Nc2nc3n(n2)CCC(O)N3Cc2ccccc2)ccc1-n1cnc(C)c1` (centres undefined), in series [5], the negative logarithm of the IC50 (pIC50) was found to be 7.8. Also, the IC50 in series [1] is 79.4 nM. For the same compound, the solubility in series [3] (read-out: solubility) is 110 µM (≈ 47.5 µg/mL). The compound also gave a CLH in series [4] of 37 µL/min. For the same compound, the permeability was 12 ×10⁻⁶ cm/s in series [7] (Caco-2) and 34 ×10⁻⁶ cm/s in series [8] (Caco-2). The Kp in series [6] was found to be 0.01.
For `COc1cc(Nc2nc3n(n2)CC(C)(O)CN3Cc2ccccc2)ccc1-n1cnc(C)c1` (centres undefined), the half-inhibitory concentration (IC50) in series [1] is 126 nM; in series [2], 23000 nM. The solubility in series [3] (read-out: solubility) stood at 160 µM (≈ 71.3 µg/mL). The compound also gave a CLH in series [4] of 17 µL/min.
For `COc1cc(Nc2nc3n(n2)CCCC3c2ccc(F)cc2)ccc1-c1nc(C)no1` (centres undefined), the negative logarithm of the IC50 (pIC50) in series [5] turned out to be 6.8.
For `COc1cc(Nc2nc3n(n2)CCCC3c2ccc(F)cc2)ccc1-n1cnc(C)n1` (stereo in doubt; 14B), the pIC50 in series [5] was determined as 7; in series [1], 6.5.
In the case of `Cc1nnc(-c2ccc(Nc3nc4n(n3)CCCC4c3ccc(F)cc3)cc2)o1` (centres undefined), in series [5], the pIC50 was determined as 5.9.
Regarding `COc1cc(Nc2nc3n(n2)CCC(=O)N3Cc2ccccc2C)ccc1-c1ccc(C)nn1`, the IC50 in series [2] stood at 33000 nM. Besides, in series [3] (read-out: solubility), the solubility was less than 1 µM. In series [4], this compound had a CLH of 66 µL/min.
With `COc1cc(Nc2nc3n(n2)CCC(=O)N3Cc2ccccc2C)ccc1-n1cnc(C)c1`, the pIC50 in series [5] is given as 8. The figures for the half-inhibitory concentration (IC50) in series [1] and in series [2] were 39.8 nM and 13000 nM, respectively. The solubility in series [3] (read-out: solubility) is less than 1 µM. In series [4], this compound yielded a CLH of 114 µL/min.
